# From patent US20060079566A1, “PDK-1/Akt signaling inhibitors” (priority 2003, published 2006)
# What was measured:
# SN12C = assay: NCI DTP screen (SRB), Renal Cancer; assay type: cell-based; settings: Homo sapiens
# Method: (§1) Screening of compounds 70 and 71 against several cancer cell lines The human tumor cell lines of the cancer screening panel are grown in RPMI 1640 medium containing 5% fetal bovine serum and 2 mM L-glutamine. For a typical screening experiment, cells are inoculated into 96 well microtiter plates in 100 μL at plating densities ranging from 5,000 to 40,000 cells/well depending on the doubling time of individual cell lines. After cell inoculation, the microtiter plates are incubated at 37° C., 5% CO2, 95% air and 100% relative humidity for 24 h prior to addition of experimental drugs.
# (§2) After 24 h, two plates of each cell line are fixed in situ with TCA, to represent a measurement of the cell population for each cell line at the time of drug addition (Tz). Experimental drugs are solubilized in dimethyl sulfoxide at 400-fold the desired final maximum test concentration and stored frozen prior to use. At the time of drug addition, an aliquot of frozen concentrate is thawed and diluted to twice the desired final maximum test concentration with complete medium containing 50 μg/ml gentamicin. Additional four, 10-fold or ½ log serial dilutions are made to provide a total of five drug concentrations plus control. Aliquots of 100 μl of these different drug dilutions are added to the appropriate microtiter wells already containing 100 μl of medium, resulting in the required final drug concentrations.
# (§3) Following drug addition, the plates are incubated for an additional 48 h at 37° C., 5% CO2, 95% air, and 100% relative humidity. For adherent cells, the assay is terminated by the addition of cold TCA. Cells are fixed in situ by the gentle addition of 50 μl of cold 50% (w/v) TCA (final concentration, 10% TCA) and incubated for 60 minutes at 4° C. The supernatant is discarded, and the plates are washed five times with tap water and air dried. Sulforhodamine B (SRB) solution (100 μl) at 0.4% (w/v) in 1% acetic acid is added to each well, and plates are incubated for 10 minutes at room temperature. After staining, unbound dye is removed by washing five times with 1% acetic acid and the plates are air dried. Bound stain is subsequently solubilized with 10 mM trizma base, and the absorbance is read on an automated plate reader at a wavelength of 515 nm. For suspension cells, the methodology is the same except that the assay is terminated by fixing settled cells at the bottom of the wells by gently adding 50 μl of 80% TCA (final concentration, 16% TCA). Using the seven absorbance measurements [time zero, (Tz), control growth, (C), and test growth in the presence of drug at the five concentration levels (Ti)], the percentage growth is calculated at each of the drug concentrations levels. Percentage growth inhibition is calculated as: [(Ti−Tz)/(C−Tz)]×100 for concentrations for which Ti>/=Tz [(Ti−Tz)/Tz]×100 for concentrations for which Ti<Tz
# (§4) Three dose response parameters are calculated for each experimental agent. […] The drug concentration resulting in total growth inhibition (TGI) is calculated from Ti=Tz. […] Values are calculated for each of these three parameters if the level of activity is reached; however, if the effect is not reached or is exceeded, the value for that parameter is expressed as greater or less than the maximum or minimum concentration tested.
# TK-10 = assay: NCI DTP screen (SRB), Renal Cancer; assay type: cell-based; settings: Homo sapiens
# Method: as §1, §2, §3, §4
# CAKI-1 = assay: NCI DTP screen (SRB), Renal Cancer; assay type: cell-based; settings: Homo sapiens
# Method: as §1, §2, §3, §4
# 786-0 = assay: NCI DTP screen (SRB), Renal Cancer; assay type: cell-based; settings: Homo sapiens
# Method: as §1, §2, §3, §4
# ACHN = assay: NCI DTP screen (SRB), Renal Cancer; assay type: cell-based; settings: Homo sapiens
# Method: as §1, §2, §3, §4
# A498 = assay: NCI DTP screen (SRB), Renal Cancer; assay type: cell-based; settings: Homo sapiens
# Method: as §1, §2, §3, §4
# NCI/ADR-RES = assay: NCI DTP screen (SRB), Breast Cancer; assay type: cell-based; settings: Homo sapiens
# Method: as §1, §2, §3, §4
# MDA-MB-231/ATCC = assay: NCI DTP screen (SRB), Breast Cancer; assay type: cell-based
# Method: as §1, §2, §3, §4
# MDA-MB-435 = assay: NCI DTP screen (SRB), Breast Cancer; assay type: cell-based; settings: Homo sapiens
# Method: as §1, §2, §3, §4
# T-47D = assay: NCI DTP screen (SRB), Breast Cancer; assay type: cell-based
# Method: as §1, §2, §3, §4
# HS 57BT = assay: NCI DTP screen (SRB), Breast Cancer; assay type: cell-based
# Method: as §1, §2, §3, §4
# OVCAR-8 = assay: NCI DTP screen (SRB), Ovarian Cancer; assay type: cell-based; settings: Homo sapiens
# Method: as §1, §2, §3, §4
# OVCAR-3 = assay: NCI DTP screen (SRB), Ovarian Cancer; assay type: cell-based
# Method: as §1, §2, §3, §4
# recombinant PDK-1 = biological target: T1, recombinant PDK-1 (Homo sapiens, UniProt O15530); assay: PDK-1 kinase activity (Upstate kit, SGK-coupled, cell-free); assay type: biochemical
# T1 construct: purchased Upstate (Lake Placid, N.Y.)
# T1 sequence (O15530 1-556): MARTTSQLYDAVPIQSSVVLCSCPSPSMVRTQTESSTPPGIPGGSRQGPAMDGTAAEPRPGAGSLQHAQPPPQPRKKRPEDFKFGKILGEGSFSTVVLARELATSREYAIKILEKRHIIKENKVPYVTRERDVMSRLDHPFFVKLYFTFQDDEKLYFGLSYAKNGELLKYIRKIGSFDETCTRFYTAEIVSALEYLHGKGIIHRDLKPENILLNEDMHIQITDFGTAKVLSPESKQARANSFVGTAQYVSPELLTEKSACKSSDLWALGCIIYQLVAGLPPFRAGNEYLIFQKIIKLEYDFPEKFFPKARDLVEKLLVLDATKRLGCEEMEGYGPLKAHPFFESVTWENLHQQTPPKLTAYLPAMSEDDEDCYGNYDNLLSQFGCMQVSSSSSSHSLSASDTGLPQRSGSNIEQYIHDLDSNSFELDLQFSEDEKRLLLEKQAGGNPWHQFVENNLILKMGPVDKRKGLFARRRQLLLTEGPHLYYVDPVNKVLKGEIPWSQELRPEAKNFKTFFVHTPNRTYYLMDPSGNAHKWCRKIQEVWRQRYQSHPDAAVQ
# Method: PDK-1 kinase activity This in vitro assay was performed using a PDK-1 kinase assay kit (Upstate, Lake Placid, N.Y.) according to the vendor's instructions. This cell-free assay is based on the ability of recombinant PDK-1, in the presence of DMSO vehicle or the test agent, to activate its downstream kinase serum- and glucocorticoid-regulated kinase (SGK.) which, in turn, phosphorylates the Akt/SGK-specific peptide substrate RPRAATF with [γ-^32]-ATP. […] The reported values represent the means of two independent determinations.
# MALNE-3M = assay: NCI DTP screen (SRB), Melanoma; assay type: cell-based
# [1] = MALNE-3M, Log10 Concentration −5.0
compound,measurement,setting,value
"NCC(=O)Nc1ccc(-n2nc(C(F)(F)F)cc2-c2ccc3c(ccc4ccccc43)c2)cc1 [Compound 70, 2-Amino-N-{4-[5-(2-phenanthrenyl)-3-(trifluoromethyl)-1H-pyrazol-1-yl]-phenyl}-acetamide]",GI50,SN12C,1580 nM
same,GI50,TK-10; TK-10,1480 nM
same,CC50,"TK-10; TK-10, read-out: LC50",6.47 µM
same,GI50,CAKI-1,703 nM
same,GI50,786-0; 786-0,1200 nM
same,CC50,"786-0; 786-0, read-out: LC50",6.79 µM
same,GI50,ACHN,1420 nM
same,GI50,A498; A498,2300 nM
same,CC50,"A498; A498, read-out: LC50",66.9 µM
same,GI50,NCI/ADR-RES,954 nM
same,CC50,NCI/ADR-RES; read-out: LC50,8.28 µM
same,CC50,"MDA-MB-231/ATCC; Homo sapiens, MDA-MB-231, read-out: LC50",6.67 µM
same,GI50,"MDA-MB-231/ATCC; Homo sapiens, MDA-MB-231/ATCC",1150 nM
same,Mean Optical Densities,"MDA-MB-231/ATCC; MDA-MB-231/ATCC, Log10 Concentration −8.0",1.988
same,GI50,MDA-MB-435,1350 nM
same,GI50,"T-47D; Homo sapiens, T47D",1820 nM
same,Percent Growth,T-47D; Log10 Concentration −4.0,−64%
same,Percent Growth,"HS 57BT; HS 57BT, Log10 Concentration −5.0",−34%
same,Percent Growth,"HS 57BT; HS 57BT, Log10 Concentration −6.0",88%
same,CC50,"HS 57BT; Homo sapiens, read-out: LC50",> 100 µM
same,GI50,"HS 57BT; Homo sapiens, HS 57BT",2050 nM
same,GI50,OVCAR-8; OVCAR-8,1020 nM
same,CC50,"OVCAR-8; OVCAR-8, read-out: LC50",> 100 µM
same,GI50,OVCAR-3; Homo sapiens,1510 nM
same,Mean Optical Densities,OVCAR-3; Log10 Concentration −8.0,1.879
same,IC50,"recombinant PDK-1; inhibiting recombinant PDK-1 kinase activity, read-out: IC50 PDK-1",5 µM
same,increase in PDK-1 inhibition potency over compound 59,recombinant PDK-1; ratio of IC50 values,two-
same,CC50,"MALNE-3M; Homo sapiens, read-out: LC50",7.73 µM
same,Mean Optical Densities,MALNE-3M; [1],0.218
same,Percent Growth,MALNE-3M; [1],−67%
same,Percent Growth,"MALNE-3M; MALNE-3M, Log10 Concentration −6.0",87%
